Test system: choroidal neovascularization (CNV)
Assay: laser irradiation-induced choroidal neovascularization mouse model (CNV model)
Format: in vivo, male C57BL/6J mouse
Settings: oral 20 mg/kg, once on laser-induction day then twice per day; compared to vehicle (0.5% hydroxypropylmethylcellulose) oral group; t-test p<0.05; FIG. 1
Description: As a result, VEGF is produced, and a new blood vessel is developed. Therefore, the CNV model is an experimental model showing the efficacy on a disease associated with ocular angiogenesis via VEGF.
Using (2S)-[4-(carboxymethyl)thiazol-2-ylthio]-N-{[4-(3,4-dichlorobenzyl)morpholin-2-yl]methyl}acetamide hydrobromide as a test compound, the following experiment was performed.
Laser was irradiated (6 spot irradiation) on one eye of male C57BL/6J mouse (7-week-old) to experimentally induce CNV.
The mouse was intramuscularly administered (1 mL/kg) with a ketamine hydrochloride/xylazine hydrochloride (1:1, v/v) mixed solution into the thigh and, after systemic anesthesia, mydriasis was induced with mydriatic eye drops, and laser irradiation (wavelength 532 nm, spot size 50 μm, irradiation time 0.1 second, laser output 120 mW) was performed at 6 points while avoiding thick capillary in the retina. […]
At 7 days from the laser irradiation, under systemic anesthesia by intramuscular administration (1 mL/kg) of a ketamine hydrochloride/xylazine hydrochloride (1:1, v/v) mixed solution into the thigh, a 4% FITC-dextran solution was administered at 0.5 mL/animal from the tail vein. […] Using a confocal microscope (OLYMPUS FV-1000D; magnification: ×20, number of pixels: 512 pixel×512 pixel), CNV site in a flat mount specimen was photographed, and measured using an image analysis software (NIH ImageJ). […]

Compound: Br.O=C(O)Cc1csc(SCC(=O)NC[C@H]2CN(Cc3ccc(Cl)c(Cl)c3)CCO2)n1 [test compound, (2S)-[4-(carboxymethyl)thiazol-2-ylthio]-N-{[4-(3,4-dichlorobenzyl)morpholin-2-yl]methyl}acetamide hydrobromide]
- CNV area after 7 days from laser irradiation (CNV suppressive effect): significant CNV suppressive effect

Source: patent publication US10130634B2, “Therapeutic agent for ophthalmic disease” (MITSUBISHI TANABE PHARMA CORPORATION, priority 2013, dated 2018)
